Values joined by “and” are separate entries in the source; they are usually repeats but may differ in a detail not shown here. Identical values can stand only once.
Key:
Assay type in all cases: functional, Homo sapiens
Set-up in all cases: dose or concentration left out as unconfirmed
Colon cancer organoid [1] = assay: Identification of compartment-specific drug sensitivities in O06 CRC organoid-stroma F06 CAF co-cultures. Organoid is transduced with Lucferase2-P2A-EGFP lentivirus, fibroblast with Renilla-dsRed lentivirus. Dual-Glo Luciferase assay is used to report viability data.
Colon cancer organoid [2] = assay: Identification of compartment-specific drug sensitivities in O20 CRC organoid-stroma F20 CAF co-cultures. Organoid is transduced with Lucferase2-P2A-EGFP lentivirus, fibroblast with Renilla-dsRed lentivirus. Dual-Glo Luciferase assay is used to report viability data.
Colon cancer organoid [3] = assay: Identification of compartment-specific drug sensitivities in O14 CRC organoid-stroma F14 CAF co-cultures. Organoid is transduced with Lucferase2-P2A-EGFP lentivirus, fibroblast with Renilla-dsRed lentivirus. Dual-Glo Luciferase assay is used to report viability data.
[4] = Transduced with Lucferase2-P2A-EGFP lentivirus
[5] = Transduced with Renilla-dsRed lentivirus

Row | SMILES | Cell Viability (Colon cancer organoid [1]; [4]) | Cell Viability (Colon cancer organoid [1]; [5]) | Cell Viability (Colon cancer organoid [2]; [4]) | Cell Viability (Colon cancer organoid [2]; [5]) | Cell Viability (Colon cancer organoid [3]; [4]) | Cell Viability (Colon cancer organoid [3]; [5])
1 | Cc1cc2c(-c3ccco3)cnc(N[C@H]3CCN(C)C[C@@H]3C(=O)NC3CCCCC3)c2[nH]c1=O [GSK791] | 113.813% | 153.556% | 101.663% | 116.18% | 100.549% | 110.493%
2 | COc1cccc(CNC(=O)c2nc3scc(CN(C)Cc4ccccc4)c3c(=O)[nH]2)c1 [T-26f] | 112.096% | 76.7347% | 156.545% | 109.586% | 126.414% | 118.487%
3 | Cc1cc(CN)cc(C)c1-c1ncn(C)c1-c1ccnc2cc(F)ccc12.Cl | 105.057% | 123.721% | 144.981% | 87.6481% | 138.136% | 105.376%
4 | OCCn1cc(-c2cnc3nnn(Cc4ccc5ncccc5c4)c3n2)cn1 [PF-04217903] | 88.0795% | 107.387% | 122.103% | 97.2338% | 55.9796% | 102.526%
5 | Cc1ccc(C(=O)Nc2cccc(C(F)(F)F)c2)cc1Nc1nc(-c2cccnc2)nc2c1cnn2C | 60.2736% | 70.9034% | 143.016% | 123.917% | 129.491% | 76.0508%
6 | COc1ccc(Oc2cc(NCCC(F)(F)F)c3ncc(-c4ccc(C(=O)NC5CC5)c(C)c4)n3n2)c(F)c1F [BAY-1217389] | 5.893% | 100.303% | 10.0806% | 184.891% | 9.59% | 58.9964%
7 | CN1CCN(c2ccc(OC(F)(F)F)c(Nc3ncc4c(n3)-c3c(c(C(N)=O)nn3CCO)CC4)c2)CC1 [ONVANSERTIB] | 2.834% | 160.245% | 1.999% | 184.086% | 2.108% | 79.1847%
8 | COc1cc(Nc2ccnc3ccc(Br)cc23)cc(OC)c1OC | 11.1317% | 122.349% | 3.207% | 235.19% | 56.2839% | 83.5621%
9 | COc1cc(N(C)c2ccnc3ccc(C(F)(F)F)cc23)cc(OC)c1OC | 62.3452% | 117.147% | 76.7382% | 110.267% | 95.9474% | 95.4836%
10 | CNC(=O)c1ccccc1Nc1cc(Nc2ccc(N3CCOCC3)cc2OC)ncc1C(F)(F)F [VS-4718] | 52.8737% | 57.2971% | 13.9942% | 72.4438% | 18.7172% | 41.7282%
11 | Cc1c(Nc2ccc(S(=O)(=O)N3CCN(C)CC3)cc2F)nc2ccc(Nc3cnn(C4CC4)c3)cn2c1=O | 81.8172% | 120.859% | 118.006% | 135.679% | 108.37% | 91.7144%
12 | COc1c(OCCCN2CCOCC2)ccc2c1N=C(NC(=O)c1cnc(N)nc1)N1CCN=C21 [COPANLISIB] | 1.487% | 40.0213% | 2.299% | 117.524% | 8.823% | 38.6713%
13 | CN(C(=O)c1ccccc1)c1cc(N(C)c2ccc3c(c2)CCc2ccc(C(=O)NCCN4CCOCC4)cc2C3=O)ccc1F [FM-743] | 67.0526% | 69.6878% | 87.6379% | 153.202% | 122.056% | 99.7372%
14 | Cc1cc(F)c(C(=O)Nc2cccc(-c3nncn3C(C)C)n2)cc1-n1cnc(C2CC2)c1 [SELONSERTIB] | 89.6649% | 105.018% | 141.758% | 89.2485% | 143.918% | 74.3836%
15 | N#CN1CC[C@H](C(=O)Nc2nc3c(s2)CN(C(=O)CN=[N+]=[N-])CC3)C1 [8RK64] | 104.648% | 104.354% | 67.6209% | 105.29% | 81.1298% | 93.9024%
16 | CCS(=O)(=O)c1cc2cc(C[C@](O)(CC(C)(C)c3ccc(F)cc3C(N)=O)C(F)(F)F)[nH]c2cn1 [BI 653048] | 70.4743% | 199.02% | 85.6205% | 287.465% | 130.109% | 193.347%
17 | CC1=C(C#N)C(c2ccc3[nH]nc(C)c3c2)C(C#N)=C(C)N1 [BAY-474] | 116.723% | 162.783% | 81.7867% | 102.241% | 60.4688% | 119.272%
18 | CN(C)c1ncnc(-c2ccc3nc(Nc4cc(CN5CCN(C(=O)CC(F)(F)F)CC5)ccn4)[nH]c3c2)c1Cl [BAY-440] | 110.52% | 104.43% | 123.006% | 109.622% | 161.186% | 109.54%
19 | CC1=C(C)C(=O)C(C(C)(C)CC(=O)N(CCCCSC[C@H]2O[C@@H](n3cnc4c(N)ncnc43)[C@H](O)[C@@H]2O)Cc2cccc(-c3ccc(Cl)cc3)c2)=C(C)C1=O | 117.447% | 138.552% | 100.369% | 114.813% | 65.9332% | 97.7144%
20 | COc1ncc(-c2ccc3nccc(-c4ccnnc4)c3c2)cc1NS(=O)(=O)c1ccc(F)cc1F [OMIPALISIB] | 2.362% | 34.7423% | 2.282% | 94.8256% | 6.452% | 40.6761%
21 | CCS(=O)(=O)Nc1ccc(Oc2ccc(F)cc2F)c(-c2cn(C)c(=O)c3[nH]ccc23)c1 [MIVEBRESIB] | 13.1828% | 272.686% | 5.758% | 64.2458% | 15.6468% | 169.821%
22 | O=C(NNS(=O)(=O)c1ccccc1F)c1cc(F)cc(-c2ccccn2)c1 [WM-1119] | 97.0333% | 108.11% | 69.0433% | 152.012% | 29.5498% | 87.8305%
23 | CN(C(=O)c1cnn2cccnc12)c1cc2c(cc1N1CCOCC1)C(=O)N(C[C@@H](F)C(C)(C)O)C2 | 93.6773% | 65.3185% | 85.5909% | 89.8275% | 98.5166% | 101.353%
24 | CCCS(=O)(=O)c1nc(NC2CC2)cc(-c2ccc3c(ccn3C3CC(C)(C)NC(C)(C)C3)c2)n1 | 80.022% and 93.4216% | 88.9327% and 142.491% | 91.7549% and 133.424% | 94.2313% and 119.463% | 124.727% and 116.36% | 92.6394% and 115.077%

Reference: ChEMBL document CHEMBL5608141, “Identification of compartment-specific drug sensitivities in CRC organoid-stroma co-cultures” (2024)
